Assays:
GTDC2dTM = target: T1, GTDC2dTM (Homo sapiens, UniProt Q8NAT1); assay: glycosyl transfer, gel filtration and NMR of product; type: biochemical
T1 sequence (Q8NAT1 26-580 limits assumed): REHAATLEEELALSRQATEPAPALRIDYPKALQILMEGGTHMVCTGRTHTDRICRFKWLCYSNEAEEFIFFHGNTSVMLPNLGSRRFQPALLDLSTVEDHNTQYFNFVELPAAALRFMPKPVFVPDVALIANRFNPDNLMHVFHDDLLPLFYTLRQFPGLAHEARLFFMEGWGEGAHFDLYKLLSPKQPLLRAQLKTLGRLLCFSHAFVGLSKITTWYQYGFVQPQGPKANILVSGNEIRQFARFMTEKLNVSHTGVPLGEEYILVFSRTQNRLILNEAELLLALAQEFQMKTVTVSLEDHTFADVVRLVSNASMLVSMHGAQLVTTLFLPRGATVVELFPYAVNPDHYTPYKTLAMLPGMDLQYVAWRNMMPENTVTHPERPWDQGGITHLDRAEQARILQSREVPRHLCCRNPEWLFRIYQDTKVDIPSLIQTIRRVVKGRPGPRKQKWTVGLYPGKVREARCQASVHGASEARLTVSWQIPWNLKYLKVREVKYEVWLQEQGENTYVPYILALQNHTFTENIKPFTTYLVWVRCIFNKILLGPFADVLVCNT

B3GALNT2dTM = target: T2, B3GALNT2dTM (Homo sapiens, UniProt Q8NCR0); assay: glycosyl transfer, MALDI-TOF/MS; type: biochemical; details: donor; acceptor GlcNAc-β4-Man-O-peptide
T2 sequence (Q8NCR0 24-500 limits assumed): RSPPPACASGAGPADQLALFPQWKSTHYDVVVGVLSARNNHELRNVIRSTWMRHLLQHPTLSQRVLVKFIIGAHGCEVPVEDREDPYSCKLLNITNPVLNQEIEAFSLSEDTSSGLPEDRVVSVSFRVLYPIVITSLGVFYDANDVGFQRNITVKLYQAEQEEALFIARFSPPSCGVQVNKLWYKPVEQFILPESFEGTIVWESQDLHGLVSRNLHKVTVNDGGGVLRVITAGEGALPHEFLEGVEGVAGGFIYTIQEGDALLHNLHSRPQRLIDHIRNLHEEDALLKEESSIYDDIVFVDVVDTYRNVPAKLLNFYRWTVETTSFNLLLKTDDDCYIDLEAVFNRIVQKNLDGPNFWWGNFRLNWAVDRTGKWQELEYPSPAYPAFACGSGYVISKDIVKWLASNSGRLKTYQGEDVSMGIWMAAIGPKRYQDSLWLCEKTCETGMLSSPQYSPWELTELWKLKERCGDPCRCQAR

Question: With `Cc1cc(=O)oc2cc(O[C@H]3O[C@H](CO)[C@@H](O)[C@H](O)[C@@H]3O)ccc12` [Man-α-MU, 4-methylumbelliferyl-α-D-mannoside] as the compound, how does the “glycosyl transfer, gel filtration and NMR of product” value (GTDC2dTM; acceptor, donor UDP-GlcNAc) read?
Answer: conducted the transfer assay using fluorescently labeled mannoside (4-methylumbelliferyl-α-D-mannoside; Man-α-MU) as the acceptor

Question: Which “glycosyl transfer, MALDI-TOF/MS” value (B3GALNT2dTM) does the source give for `CC(=O)N[C@H]1[C@@H](OP(=O)(O)OP(=O)(O)OC[C@H]2O[C@@H](n3ccc(=O)[nH]c3=O)[C@H](O)[C@@H]2O)O[C@H](CO)[C@H](O)[C@@H]1O` [UDP-GalNAc] here?
Answer: incubated this protein with UDPGalNAc and the GlcNAc-β4-Man-O-peptide produced by the GTDC2dTM reaction

Question: With `CC(=O)N[C@H]1[C@@H](OP(=O)(O)OP(=O)(O)OC[C@H]2O[C@@H](n3ccc(=O)[nH]c3=O)[C@H](O)[C@@H]2O)O[C@H](CO)[C@@H](O)[C@@H]1O` [UDP-GlcNAc] as the compound, how does the “glycosyl transfer, gel filtration and NMR of product” value (GTDC2dTM; donor, acceptor Man-α-MU) read?
Answer: Reactant of the GTDC2dTM assay using Man-α-MU and UDP-GlcNAc was separated

From paper PMC3848040 (Science (New York, N.Y.), 2013)
